Each structure is given as a SMILES string. The source made the active and inactive calls. No cut-off for these calls is given here.

The test system of one test is HeLa. Description: Cytoprotective activity against shiga toxin-induced cytotoxicity in human HeLa cells at 30 uM incubated for 4 hrs prior to shiga toxin addition measured after 20 hrs by liquid scintillation counting analysis. In kind it is functional, cell-based.
Consider `O=C1c2ccccc2NC(c2ccc(-c3ccccc3)s2)N1c1ccccc1` (racemic), for which a half-maximal effect (EC50) was put at 3.7 µM. In the case of `CSc1ccc(C2N(C)c3ccccc3C(=O)N2c2ccccc2)s1` (racemic), the EC50 worked out at 4.8 µM. On the same count and under the same terms, the value for `O=C1c2ccccc2NC(c2ccc(Br)s2)N1c1ccccc1` (racemic) was 13.7 µM; that for `Cc1ccc(C2N(C)c3ccccc3C(=O)N2c2ccccc2F)s1` (racemic) was 5.5 µM; that for `Cc1ccc(C2N(C)c3ccccc3C(=O)N2c2ccccc2S(=O)(=O)c2ccccc2)s1` (racemic) was 8 µM.

The subject of the next test is HeLa. Description: Cytoprotective activity against shiga toxin-induced cytotoxicity in human HeLa cells at 30 uM incubated for 4 hrs prior to shiga toxin addition measured after 20 hrs by liquid scintillation counting analysis relative to Retro-2. Format: functional.
As for `Cc1ccc(C2N(C)c3ccccc3C(=O)N2c2ccccc2)s1` (single isomer, unassigned; form 2), the result was Active.

For `COc1ccc(C2Nc3ccccc3C(=O)N2c2ccccc2)cc1` (racemic), the Activity turned out to be 10%. Still for that read-out and setting: as for `O=C1c2ccccc2NC(c2ccc(-c3ccccc3)s2)N1c1ccccc1` (racemic), the figure is 287%; as for `CCC(C)N1C(=O)c2ccccc2NC1c1ccc(C)s1` (racemic), 0%. For `CN1c2ccccc2C(=O)N(c2ccccc2)C1c1ccc(-c2ccccn2)s1` (racemic), the Activity was determined as 94.6%. The compound `Cc1ccc(C2N(C)c3ccccc3C(=O)N2c2ccccc2Br)s1` (racemic) registered an Activity of 10.5%. Same read-out and setting: as for `Cc1ccc(-c2ccc(C3N(C)c4ccccc4C(=O)N3c3ccccc3)s2)cc1[N+](=O)[O-]` (racemic), the figure is 0%; as for `CN(C)c1ccc(C2Nc3ccccc3C(=O)N2c2ccccc2)cc1` (racemic), 48%.

As to `Cc1ccc(C2Nc3ccccc3C(=O)N2c2ccc(-c3ccccc3)cc2)s1` (racemic), the Activity stood at 0%.

For `Cc1ccc(C2N(c3ccccc3)C(=O)c3ccccc3N2C(=O)c2ccccc2)s1` (racemic), the Activity is given as 0%. On the same count and under the same terms, as for `CCCc1ccc(C2Nc3ccccc3C(=O)N2c2ccccc2)s1` (racemic), the figure is 54%.

In the case of `CSc1ccccc1N1C(=O)c2ccccc2NC1c1ccc(C)s1` (racemic), the Activity was found to be 75%. With `CSc1ccc(C2N(C)c3ccccc3C(=O)N2c2ccccc2)s1` (racemic), the Activity is given as 265.9%. Take `Cc1ccc(C2Nc3ccccc3C(=O)N2C2CCCCC2)s1` (racemic): the Activity stood at 0%. The same measure, in the same setting: the value for `Cc1ccc(C2Nc3ccccc3C(=O)N2c2ccc(Br)cc2)s1` (racemic) was 0%; that for `O=C1c2ccccc2NC(c2ccc(Br)s2)N1c1ccccc1` (racemic) was 146%. On the same count and under the same terms, as for `Cc1ccc(C2Nc3ccccc3C(=O)N2[C@H]2C[C@@H]3CC[C@H]2C3)s1` (mixture of isomers), the figure is 0%; as for `Cc1ccc(C2N(C)c3ccccc3C(=O)N2c2ccccc2F)s1` (racemic), 208.6%. Regarding `Cc1ccc(C2Nc3ccccc3C(=O)N2c2cccc(Br)c2)s1` (racemic), the Activity is on record as 0%.

Consider `Cc1ccc(C2N(C)c3ccccc3C(=O)N2c2ccccc2C#N)s1` (racemic), for which the Activity came out at 54%. On the same count and under the same terms, the value for `Cc1ccc(C2Nc3ccccc3C(=O)N2c2cccc(C(F)(F)F)c2)s1` (racemic) was 0%; that for `CC(=O)c1ccc(-c2ccc(C3N(C)c4ccccc4C(=O)N3c3ccccc3)s2)cc1` (racemic) was 0.7%; that for `Cc1ccc(C2N(C)c3ccccc3C(=O)N2c2ccccc2S(=O)(=O)c2ccccc2)s1` (racemic) was 145%. On to `COc1ccc(CCN2C(=O)c3ccccc3NC2c2ccc(C)s2)cc1` (racemic), for which the Activity is recorded as 0%. As to `CN1c2ccccc2C(=O)N(c2ccccc2)C1c1ccc(-c2ccc(C#N)cc2)s1` (racemic), the Activity was determined as 0%. The compound `Cc1ccc(C2Nc3ccccc3C(=O)N2C(C)C)s1` (racemic) displayed an Activity of 0%. `COc1cc(-c2ccc(C3N(C)c4ccccc4C(=O)N3c3ccccc3)s2)cc(OC)c1OC` (racemic) came in with an Activity of 0%. With `COc1ccc(-c2ccc(C3N(C)c4ccccc4C(=O)N3c3ccccc3)s2)cc1` (racemic), the Activity is 26.2%. `COc1ccc2c(c1)C(=O)N(c1ccccc1)C(c1ccc(C)s1)N2` (racemic): the Activity is 2%.

Turning to `CN1c2ccccc2C(=O)N(c2ccccc2)C1c1ccc(-c2ccoc2)s1` (racemic), the Activity was 74.7%. On the same count and under the same terms, the value for `CN1c2ccccc2C(=O)N(c2ccccc2)C1c1ccc(C#N)s1` (racemic) was 0%. Still for that read-out and setting: as for `Cc1ccc(C2N(Cc3ccccc3)c3ccccc3C(=O)N2c2ccccc2)s1` (racemic), the figure is 1%; as for `O=C1c2ccccc2NC(c2cccs2)N1c1ccccc1` (racemic), 0%; as for `CCCCN1C(=O)c2ccccc2NC1c1ccc(C)s1` (racemic), 0%.

Compound `Cc1ccc(C2Nc3ccccc3C(=O)N2c2cccc(Cl)c2)s1` (racemic) yielded an Activity of 54%. The same measure, in the same setting: the value for `CN1c2ccccc2C(=O)N(c2ccccc2)C1c1ccc(-c2cccc3ccccc23)s1` (racemic) was 0%; that for `Cc1ccc(C2N(C)c3ccccc3C(=O)N2c2ccccc2OC(F)(F)F)s1` (racemic) was 4.4%. The compound `CN1c2ccccc2C(=O)N(c2ccccc2)C1c1ccc(-c2ccc(Oc3ccccc3)cc2)s1` (racemic) gave an Activity of 15.7%. In turn, `Cc1ccc(C2N(C)c3ccccc3C(=O)N2c2ccccc2Cc2ccccc2)s1` (racemic) displayed an Activity of 1%. Same read-out and setting: as for `Cc1ccc(C2N(C)c3ccccc3C(=O)N2c2ccccc2[N+](=O)[O-])s1` (racemic), the figure is 33%. As for `CN1c2ccccc2C(=O)N(c2ccccc2)C1c1ccc(C=O)s1` (racemic), the Activity is on record as 0%.

The compound `Cc1ccc(C2Nc3ccccc3C(=O)N2c2ccncc2)s1` (racemic) returned an Activity of 0%. Consider `Cc1ccsc1C1Nc2ccccc2C(=O)N1c1ccccc1` (racemic), for which the Activity was 0%. Same read-out and setting: the value for `CN1c2ccccc2C(=O)N(c2ccccc2)C1c1ccc(-c2csc3ccccc23)s1` (racemic) was 0%; that for `CN1c2ccccc2C(=O)N(c2ccccc2)C1c1ccc(-c2ccc3[nH]ccc3c2)s1` (racemic) was 0%. Still for that read-out and setting: the value for `Cc1ccc(C2Nc3ccccc3C(=O)N2c2ccc(C#N)cc2)s1` (racemic) was 0%. Consider `CN1c2ccccc2C(=O)N(c2ccccc2)C1c1ccc(-c2ccc3ccccc3c2)s1` (racemic), for which the Activity was determined as 9.7%.

`COc1cccc(C2Nc3ccccc3C(=O)N2c2ccccc2)c1` (racemic) gave an Activity of 0%.

Consider `Cc1ccc(C2N(C)c3ccccc3C(=O)N2c2ccccc2Oc2ccccc2)s1` (racemic), for which the Activity is 23%. Turning to `CN1c2ccccc2C(=O)N(c2ccccc2)C1c1ccc(CNCc2ccccc2)s1` (racemic), the Activity is reported as 6.2%. Same read-out and setting: the value for `COC(=O)c1ccc(-c2ccc(C3N(C)c4ccccc4C(=O)N3c3ccccc3)s2)cc1` (racemic) was 2.9%.

In turn, `Cc1ccc(C2N(C)c3ccccc3C(=O)N2c2ccccc2C(F)(F)F)s1` (racemic) displayed an Activity of 3%.

`Cc1ccc(C2Nc3ccccc3C(=O)N2c2ccc(Cl)cc2)s1` (racemic) returned an Activity of 0%. Still for that read-out and setting: as for `CN1c2ccccc2C(=O)N(c2ccccc2)C1c1ccc(-n2cccc2)s1` (racemic), the figure is 12%. Same read-out and setting: the value for `Cc1ccc(C2Nc3ccccc3C(=O)N2c2ccccc2Br)s1` (racemic) was 0%; that for `CN1c2ccccc2C(=O)N(c2ccccc2)C1c1ccc(Sc2ccccc2)s1` (racemic) was 75.5%.

In the case of `CN1c2ccccc2C(=O)N(c2ccccc2)C1c1ccc(-c2cccc([N+](=O)[O-])c2)s1` (racemic), the Activity turned out to be 0%.

Consider `Cc1csc(C2Nc3ccccc3C(=O)N2c2ccccc2)c1` (racemic), for which the Activity is given as 1%. Same read-out and setting: as for `Cc1ccc(C2Nc3cc(F)ccc3C(=O)N2c2ccccc2)s1` (racemic), the figure is 0%; as for `CCCCN1c2ccccc2C(=O)N(c2ccccc2)C1c1ccc(C)s1` (racemic), 0%; as for `Cc1ccc(C2Nc3ccccc3C(=O)N2Cc2ccccc2)s1` (racemic), 0%.

Take `O=C1c2ccccc2NC(c2ccccc2)N1c1ccccc1` (racemic): the Activity is 0%. Still for that read-out and setting: the value for `Cn1cc(C2Nc3ccccc3C(=O)N2c2ccccc2)c2ccccc21` (racemic) was 0%; that for `CCCN1c2ccccc2C(=O)N(c2ccccc2)C1c1ccc(C)s1` (racemic) was 0%; that for `Cc1ccc(C2Nc3ccccc3C(=O)N2C23CC4CC(CC(O)(C4)C2)C3)s1` (racemic) was 0%. Still for that read-out and setting: as for `O=C1c2ccccc2NC(c2cccnc2)N1c1ccccc1` (racemic), the figure is 0%; as for `Cc1ccc2c(c1)C(=O)N(c1ccccc1)C(c1ccc(C)s1)N2` (racemic), 11.2%; as for `Cc1ccc(C2N(C)c3ccccc3C(=O)N2c2ccccc2OCc2ccccc2)s1` (racemic), 9.8%. On the same count and under the same terms, as for `Cc1ccc(C2Nc3ccccc3C(=O)N2c2cccnc2)s1` (racemic), the figure is 0%. In turn, `CCN1c2ccccc2C(=O)N(c2ccccc2)C1c1ccc(C)s1` (racemic) returned an Activity of 2.9%. The same measure, in the same setting: as for `CN1c2ccccc2C(=O)N(c2ccccc2)C1c1ccc(CCl)s1` (racemic), the figure is 0%; as for `COc1ccc(-c2ccc(C3N(C)c4ccccc4C(=O)N3c3ccccc3)s2)cc1OC` (racemic), 1.5%. Same read-out and setting: the value for `Cc1ccc(C2N(C)c3ccccc3C(=O)N2c2ccccc2-c2ccccc2)s1` (racemic) was 99%; that for `CN1c2ccccc2C(=O)N(c2ccccc2)C1c1ccc(CO)s1` (racemic) was 0%. As to `Cc1ccc(C2N(C)c3ccccc3C(=O)N2c2ccccc2)s1` (single isomer, unassigned; form 1), the result was inactive.

In turn, `Cc1ccc(C2N(C)c3ccccc3C(=O)N2c2ccccc2Sc2ccccc2)s1` (racemic) registered an Activity of 9.6%. Still for that read-out and setting: the value for `CN1c2ccccc2C(=O)N(c2ccccc2)C1c1ccc(-c2cccs2)s1` (racemic) was 84%; that for `Cc1ccc(C2Nc3c(C)cccc3C(=O)N2c2ccccc2)s1` (racemic) was 4%.

`Cc1ccc(C2Nc3ccccc3C(=O)N2c2ccncn2)s1` (racemic) registered an Activity of 0.5%.

One may read the EC50 as the concentration giving half of the maximal effect. A higher EC50 goes with a less potent agent.

The values are drawn from ChEMBL document CHEMBL2321805, “N-methyldihydroquinazolinone derivatives of Retro-2 with enhanced efficacy against Shiga toxin” (J Med Chem, 2013).
